Several values for one entry are separate records, joined by “and”; a condition that tells them apart may be missing. Equal values may be shown once.
Target: T1, GPR73 (prokineticin 1 receptor) (Homo sapiens, UniProt Q8TCW9)
T1 construct: expressed in transfected cells; host or cells: HEK 293
Assay: PK1 functional assay: Ca2+ mobilization screening for PK1 antagonists on the FLIPR
Type: cell-based
Conditions: HEK 293 GPR73 cells, multiple values = multiple testing; for inhibition at 10 µM: HEK293, 10 μM compound, read-out: Ca^2+ Mobilization % Inh @ 10 μM; for IC50: PK1 ligand preparation at its EC50, read-out: Ca^2+ Mobilization IC50; for Ca^2+ Mobilization % Inh @ 10 μM: 10 μM compound
Description: At a time of 24 h prior to running the assay, in cell culture media (DMEM containing high Glucose and L-glutamine, 10% FBS, 1% Pen/Streptomycin, 1% Sodium Pyruvate, 20 mM HEPES, Zeocin 200 mg/L), 100 μL of 1.3*10^6/ml HEK 293 GPR73 (prokineticin 1 receptor) expressing cells were plated in a 96 well poly-d-lysine coated plate (Costar), and incubated at 37 C and 5% CO2. On the day in which the assay was run, the media was removed and 200 μL of 5× Calcium Plus Dye (Molecular Devices) which was previously resuspended with 200 mL of assay buffer [HBSS w/Ca^2+ and Mg^2+ w/o phenol red, 20 mM HEPES, 0.1% BSA, 10 mL probenecid (710 mg probenecid in 5 mL of 1N NaOH, to which was then added 5 mL HBSS containing 20 mM HEPES)] was added to each well of the 96-well plate. The plate was incubated at 37 C and 5% CO2 for 30 min in dark. The plate was removed and allowed to reach RT for 15 min in the dark. The assay was then run on the FLIPR. In Brief: base line read for 1 min, compound added (25 μL) and incubated for 4 min, 15 seconds, PK1 ligand preparation added (25 μL) for a final concentration of a previously determined EC50 and fluorescence was counted for 1 min, 45 seconds. Baseline is described as the amount of relative fluorescence read when buffer alone is added to cells. Baseline was subtracted from all wells. Percent of control was calculated as follows:
(Baseline subtracted well value is divided by baseline subtracted max value)*100. Percent inhibition is 100 minus the percent of control value.
The IC50 is defined as the amount of a given compound required to inhibit 50% of the maximum signal that is generated by the concentration of PK1 preparation used in our assay. IC50 values were calculated using GraphPad Prism.

T1 sequence (Q8TCW9 whole entry, species assumed): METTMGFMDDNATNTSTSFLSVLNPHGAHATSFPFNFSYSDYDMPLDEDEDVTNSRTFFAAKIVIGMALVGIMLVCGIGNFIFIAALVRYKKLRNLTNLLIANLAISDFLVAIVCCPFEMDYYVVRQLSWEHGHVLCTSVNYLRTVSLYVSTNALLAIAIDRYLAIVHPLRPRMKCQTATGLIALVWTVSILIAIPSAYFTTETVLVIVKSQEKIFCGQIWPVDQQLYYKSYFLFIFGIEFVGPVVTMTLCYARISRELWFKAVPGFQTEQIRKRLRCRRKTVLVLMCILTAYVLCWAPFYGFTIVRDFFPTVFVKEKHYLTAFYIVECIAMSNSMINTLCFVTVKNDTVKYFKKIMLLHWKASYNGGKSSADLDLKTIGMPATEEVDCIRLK

Structure (SMILES) | inhibition at 10 µM | IC50 | Ca^2+ Mobilization % Inh @ 10 μM
COc1ccc(Cn2c(NCCc3ccccn3)nc(=O)n(Cc3ccc(Cl)c(Cl)c3)c2=O)cc1 [Cpd 1] | 37% | > 10000 nM | –
COc1ccc(Cn2c(NCc3cccnc3)nc(=O)n(Cc3ccc(Cl)c(Cl)c3)c2=O)cc1 [Cpd 2] | 47% | > 10000 nM | –
COc1ccc(Cn2c(NCc3ccc(N)cn3)nc(=O)n(Cc3ccc(Cl)cc3)c2=O)cc1 [Cpd 4] | 94% | 357 nM | –
COc1ccc(Cn2c(NCc3ccc(N)nc3)nc(=O)n(Cc3ccc(Cl)cc3)c2=O)cc1 [Cpd 5] | 81% | 1120 nM | –
COc1ccc(Cn2c(NCc3cncnc3N)nc(=O)n(Cc3ccc(OC)cc3)c2=O)cc1 [Cpd 6] | 90% | 176 nM | –
COc1ccc(Cn2c(CNCc3cccnc3N)cc(=O)n(Cc3ccc(OC)cc3)c2=O)cc1 [Cpd 7, 6-{[(2-Amino-pyridin-3-ylmethyl)-amino]-methyl}-1,3-bis-(4-methoxy-benzyl)-1H-pyrimidine-2,4-dione] | 60% | 6200 nM | –
COc1ccc(Cn2c(NCc3cccnc3N)nc(=O)n(Cc3ccc(F)cc3)c2=O)cc1 [Cpd 8] | 89% | 535 nM and 669 nM | 86%
COc1ccc(Cn2c(NCc3cc4ccccc4nc3N)nc(=O)n(Cc3ccc(OC)cc3)c2=O)cc1 [Cpd 9] | 95% | 295 nM | –
COc1ccc(Cn2c(NCCc3cccnc3N)nc(=O)n(Cc3ccc(F)cc3)c2=O)cc1 [Cpd 10] | 82% | 1250 nM | –
COc1ccc(Cn2c(NCc3cccnc3N3CCCC3)nc(=O)n(Cc3ccc(F)cc3)c2=O)cc1 [Cpd 11] | 54% | 6790 nM | –
COc1ccc(Cn2c(NCc3cccnc3N3CCNCC3)nc(=O)n(Cc3ccc(OC)cc3)c2=O)cc1 [Cpd 12] | 74% | 1290 nM | –
COc1ccc(Cn2c(NCc3cccnc3N3CCCCC3)nc(=O)n(Cc3ccc(OC)cc3)c2=O)cc1 [Cpd 13] | 72% | 544 nM | –
CNc1ncccc1CNc1nc(=O)n(Cc2ccc(F)cc2)c(=O)n1Cc1ccc(OC)cc1 [Cpd 14] | 90% | 793 nM | –
CCCNc1ncccc1CNc1nc(=O)n(Cc2ccc(F)cc2)c(=O)n1Cc1ccc(OC)cc1 [Cpd 15] | 95% | 327 nM | –
CCCCNc1ncccc1CNc1nc(=O)n(Cc2ccc(F)cc2)c(=O)n1Cc1ccc(OC)cc1 [Cpd 16] | 89% | 348 nM | –
COc1ccc(Cn2c(NCc3cccnc3N3CCOCC3)nc(=O)n(Cc3ccc(F)cc3)c2=O)cc1 [Cpd 17] | 73% | 2430 nM | –
COc1ccc(Cn2c(NCc3cccnc3N3CCSCC3)nc(=O)n(Cc3ccc(F)cc3)c2=O)cc1 [Cpd 18] | 58% | 5480 nM | –
CCNc1ncccc1CNc1nc(=O)n(Cc2ccc(F)cc2)c(=O)n1Cc1ccc(OC)cc1 [Cpd 19] | 83% | 885 nM | –
COc1ccc(Cn2c(NCc3cccnc3N3CCOCC3)nc(=O)n(Cc3ccc(OC)cc3)c2=O)cc1 [Cpd 20] | 95% | 177 nM | –
COc1ccc(Cn2c(NCc3ccc4c(n3)NCCC4)nc(=O)n(Cc3ccc(F)cc3)c2=O)cc1 [Cpd 21, 3-(4-Fluoro-benzyl)-1-(4-methoxy-benzyl)-6-[(5,6,7,8-tetrahydro-[1,8]naphthyridin-2-ylmethyl)-amino]-1H-[1,3,5]triazine-2,4-dione] | 85% | 656 nM | –
COc1ccc(Cn2c(NCc3cnc(C)cc3C)nc(=O)n(Cc3ccc(OC)cc3)c2=O)cc1 [Cpd 22, 6-[(4,6-Dimethyl-pyridin-3-ylmethyl)-amino]-1,3-bis-(4-methoxy-benzyl)-1H-[1,3,5]triazine-2,4-dione] | 88% | – | 96% and 97%
COc1ccc(Cn2c(NCc3cccnc3N)nc(=O)n(Cc3cc4ccccc4o3)c2=O)cc1 [Cpd 23] | 97% | 231 nM | –
COc1ccc(Cn2c(NCc3cccnc3N)nc(=O)n(Cc3ccc(SC)cc3)c2=O)cc1 [Cpd 24] | 60% | 115 nM | –
COc1ccc(Cn2c(NCc3ccc(-c4ccc(F)cc4)nc3)nc(=O)n(Cc3ccc(OC)cc3)c2=O)cc1 [Cpd 25] | 89% | 2740 nM | –

Structure (SMILES) | inhibition at 10 µM | IC50 | Ca^2+ Mobilization % Inh @ 10 μM
COc1ccc(Cn2c(NCc3cccnc3N)cc(=O)n(Cc3ccc(OC)cc3)c2=O)cc1 [Cpd 26] | 84% | 45 nM | –
COc1ccc(Cn2c(NCc3cccnc3NCCN(C)C)nc(=O)n(Cc3ccc(F)cc3)c2=O)cc1 [Cpd 27] | 102% | 88 nM | –
COCCNc1ncccc1CNc1nc(=O)n(Cc2ccc(F)cc2)c(=O)n1Cc1ccc(OC)cc1 [Cpd 28, 3-(4-Fluoro-benzyl)-1-(4-methoxy-benzyl)-6-{[2-(2-methoxy-ethylamino)-pyridin-3-ylmethyl]-amino}-1H-[1,3,5]triazine-2,4-dione] | 85% | – | 90% and 91%
COc1ccc(Cn2c(NCc3cccnc3NCCO)nc(=O)n(Cc3ccc(F)cc3)c2=O)cc1 [Cpd 29] | 111% | 110 nM | –
COc1ccc(Cn2c(NCc3cccnc3NCCN)nc(=O)n(Cc3ccc(F)cc3)c2=O)cc1 [Cpd 30] | 68% | 1240 nM | –
COc1ccc(Cn2c(NCc3cccnc3NC3CCCCC3)nc(=O)n(Cc3ccc(F)cc3)c2=O)cc1 [Cpd 31] | 91% | 939 nM | –
COc1ccc(Cn2c(NCc3ccc[n+]([O-])c3N)nc(=O)n(Cc3ccc(OC)cc3)c2=O)cc1 [Cpd 32] | 78% | 1220 nM | –
COc1ccc(Cn2c(=O)nc(NCc3cccnc3N)n(Cc3ccc(O)cc3)c2=O)cc1 [Cpd 33, 6-[(2-Amino-pyridin-3-ylmethyl)-amino]-1-(4-hydroxy-benzyl)-3-(4-methoxy-benzyl)-1H-[1,3,5]triazine-2,4-dione] | 95% | 49 nM and 77 nM | 102%
CCCNc1ncccc1CNc1nc(=O)n(Cc2ccc(OC)cc2)c(=O)n1Cc1ccc(OC)cc1 [Cpd 34] | 98% | 81 nM | –
COc1ccc(Cn2c(=O)nc(NCc3cccnc3N)n(Cc3ccc(OC(F)F)cc3)c2=O)cc1 [Cpd 35, 6-[(2-Amino-pyridin-3-ylmethyl)-amino]-1-(4-difluoromethoxy-benzyl)-3-(4-methoxy-benzyl)-1H-[1,3,5]triazine-2,4-dione] | 85% | 34 nM | –
COC(=O)c1ccc(Cn2c(NCc3cccnc3N)nc(=O)n(Cc3ccc(OC)cc3)c2=O)cc1 [Cpd 36] | 84% | 270 nM | –
COc1ccc(Cn2c(=O)nc(NCc3cccnc3N)n(Cc3ccc(NC(C)=O)cc3)c2=O)cc1 [Cpd 37] | 86% | 250 nM | –
COc1ccc(Cn2c(=O)nc(NCc3cccnc3N)n(Cc3ccc(OC(F)(F)F)cc3)c2=O)cc1 [Cpd 38] | 91% | 391 nM | –
COc1ccc(Cn2c(NCc3ccccn3)nc(=O)n(Cc3ccc(OC)cc3)c2=O)cc1 [Cpd 39] | 92% | 63 nM and 82 nM | 95%
COc1ccc(Cn2c(NCc3ccncc3)nc(=O)n(Cc3ccc(OC)cc3)c2=O)cc1 [Cpd 41] | 72% | 1060 nM | –
COc1ccc(Cn2c(NCc3cccnc3N)nc(=O)n(Cc3cccc(OC)c3)c2=O)cc1 [Cpd 42] | 49% | > 10000 nM | –
COc1ccc(Cn2c(NCc3cccnc3N)nc(=O)n(Cc3ccccc3)c2=O)cc1 [Cpd 43] | 78% | 801 nM | –
COc1ccc(Cn2c(NCc3cccnc3N)nc(=O)n(Cc3ccc(C#N)cc3)c2=O)cc1 [Cpd 44] | 66% | 2020 nM | –
COc1ccc(Cn2c(NCc3cccnc3N)nc(=O)n(Cc3ccc(OC(F)(F)F)cc3)c2=O)cc1 [Cpd 45] | 40% | > 10000 nM | –
CCOc1ccc(Cn2c(=O)nc(NCc3cccnc3N)n(Cc3ccc(OC)cc3)c2=O)cc1 [Cpd 46] | 80% | 522 nM | –
COc1ccc(Cn2c(NCc3cccnc3N)nc(=O)n(Cc3ccc([N+](=O)[O-])cc3)c2=O)cc1 [Cpd 47] | 80% | 826 nM | –
C=CCC(c1ccc(OC)cc1)n1c(=O)nc(NCc2cccnc2N)n(Cc2ccc(OC)cc2)c1=O (stereo not shown) [Cpd 48] | 75% | 956 nM | –
COc1ccc(Cn2c(NCc3cccnc3N)nc(=O)n(Cc3ccc(C(F)(F)F)cc3)c2=O)cc1 [Cpd 49] | 64% | 3170 nM | –

From US20080287445A1, “Prokineticin 2 receptor antagonists” (priority 2005, published 2008)
